Reference: patent US20110152218A1, “CRYSTALLINE PHOSPHOLIPID, METHOD FOR ITS PRODUCTION AND USE IN TREATING DAMAGED TISSUE” (priority 2008, published 2011)

Tests used:
[1] = tested on: human peritoneal mesothelial cell (HPMC); test: HPMC proliferation, Alamar Blue and MTT assay; type: cell-based; conditions: 48 hours and 72 hours; over the tested concentrations in supplemented M199
Description: The effect of a phospholipid prepared as described in Example 1 (and/or its constituent compounds) to induce human peritoneal mesothelial cell proliferation was assessed using an Alamar Blue™ assay and an MTT assay.
The Alamar Blue™ assay is designed to measure the proliferation of various cell types by measuring the ability of the cells to metabolise and reduce a REDOX indicator (Alamar Blue™). Reduction of the REDOX indicator results in a change in its fluorescent activity. Therefore the fluorescent activity measured is proportional to cell proliferation.
The MTT Assay measures the proliferations of various cells and is based on the mitochondrial conversion of tetrazolium salt 3-[4,5-dimethyl-thiazol-2-yl]-2,5-diphenyltetrazium bromide (MTT), into an insoluble formazan salt. The resultant colour change is directly related to the number of viable cells.
As described in Morgan L W et al (“Glucose degradation products (GDP) retard re-mesothelialisation independently of D-glucose concentration.” Kidney Int 64:1854-1866, 2003), primary HPMC are isolated from omental tissue biopsies donated by consenting patients undergoing elective abdominal surgery. Cells were grown to approximately 60% confluence in 96 well plates (Falcon) and used at passage 2. All cells were growth arrested in serum free M199 for 24 hours prior to use.
The supplemented M199 medium was prepared as follows. Earle's salt medium M199 was supplemented with 100μ/ml penicillin, 100 μg/ml streptomycin, 2 mM glutamine, 5 μg/ml insulin, 5 μg/ml transferrin and 0.4 μg/ml hydrocortisone and 2 mmol/L N-2-hydroxyethylpiperazine-N′-2ethanesulfonic acid.
The phospholipid prepared as described in Example 1 was prepared as follows. […]
The growth medium was aspirated from each well and then the well was washed once using 200 μl per well of supplemented M199. […] The fluorescent activity of Alamar Blue™ at 540 nm (wavelength) was measured using a Dynex Revalation 96-multiwell plate reader. […]

[2] = tested on: HPMC; test: HPMC ATP bioluminescence assay; type: cell-based, human; conditions: 72 hours; single well; over the tested concentrations
Description: The viability of HPMC after stimulation with FCS, phospholipid prepared according to Example 1 (Vibrated and Non-vibrated), lysophosphatidic acid (LPA), DPPC, DPPC/LPA, POPC, Curosurf, egg-PG (EPG) and the three Intralipid™ products was determined using an ATP assay. This assay measures the light emitted during the ATP dependant oxidation of luciferin in order to accurately quantify the ATP concentration.
As described in Example 3, primary HPMC are isolated from omental tissue biopsies donated by consenting patients undergoing elective abdominal surgery. Cells are grown to approximately 60% confluence in 96 well plates (Falcon) and used at passage 2. All cells are growth arrested in serum free M199 for 24 hours prior to use.
An ATP Bioluminescence Assay Kit CLS II (Roche Diagnostics, Cat No 1 699 695, 11857300) was used. It contains ATP Standard, Luciferase and distilled water. A 10 mM EDTA solution was prepared by dissolving 1.8612 g EDTA (Fischer Scientific, Code D/0650/60, Batch 0447430, Mr-372.24) in 500 ml H2O (or 3.7224 g in 1 litre). A BAC-extract solution was prepared by dissolving 1 g Benzalkonium Chloride (Sigma-Aldrich, Cat:-23, 442-7, Lot S22104-334) in 1 litre of 10 mM EDTA. […]
To mix, rotate the bottle carefully. • 2) Make up an ATP standard solution having a base concentration of 1.65 μM ATP. […] Use distilled water as the control. • 4) Set the Fluostar Optima plate reader to measure luminescence. Set the Fluostar Optima plate reader pump to inject 20 μl of luciferase into each of the required wells. • 5) Place the plate into the plate reader and measure the relative light units (RLU). • 6) Prepare a standard curve such as that shown in FIG. 16 by plotting a graph of RLU against ATP concentration.
96 well plates from the HPMC proliferation study were defrosted. […] The ATP concentrations were calculated from the RLU of the samples using the standard curve. As an alternative to using an ATP standard curve, data can be normalised to the un-stimulated control and expressed as “ATP (% of control)”.

[3] = tested on: HPMC; test: Alamar Blue assay of HPMC proliferation in various tested media; type: cell-based, human; conditions: 50/50 v/v Hartmanns solution and supplemented M199; 48 hours; single well
Description: The suitability of various media for use in forming a dispersion of phospholipid prepared as described in Example 1 or of DPPC was investigated. The Alamar Blue™ assay of HPMC proliferation described in Example 3 was repeated using a single well of cells for each stimulation with a positive control of FCS dispersed in the tested medium, a negative control of the tested medium, and a phospholipid dispersed in the tested medium. The results obtained after 48 hours are shown in FIGS. 13A-13J and discussed below.

`CCCCCCCCCCCCCCCC(=O)OC[C@H](COP(=O)([O-])OCC[N+](C)(C)C)OC(=O)CCCCCCCCCCCCCCC` [DPPC, Dipalmitoyl phosphatidyl choline] was tested, and the “HPMC proliferation compared to the negative control” value [1] was “no significant stimulation of HPMC proliferation”, the “HPMC proliferation by ATP assay (ATP % of control) compared to the negative control” value [2] was “no increase of HPMC proliferation” and the “HPMC proliferation response in the first tested medium” value [3] was “not as great as DPPC in supplemented M199 by itself”.
